Results taken from US20230277553A1, “THERAPEUTIC COMPOSITION OF CURE-PRO COMPOUNDS FOR TARGETED DEGRADATION OF BET DOMAIN PROTEINS, AND METHODS OF MAKING AND USAGE” (CORNELL UNIVERSITY, priority 2020, published 2023).
Entries after “also recorded” stand apart in the source; their conditions may differ.

Assays:
SLC19A1 = assay: Suppression of c-MYC downstream target gene SLC19A1, RT-PCR (Cells-to-Ct), HeLa cells; type: cell-based, Human; conditions: 24 h, 10 μM each
Description: The suppression of the expression of the downstream c-MYC target, SLC19A1, was measured by RT-PCR using Power SYBR© Green Cells-to-Ct™ Kit (Life Technologies). Adherent cells were plated on 96 well plates at 5,000 cells per well were treated for 24h with monomer compounds and compounds capable of reversible interactions (1 nM-100 μM). Cells were subsequently washed in ice-cold PBS processed according to the manufacturer's instructions. Quantitative real-time PCR was performed using a ViiA™ 7 Real-time PCR System (Applied Biosystems, Foster City, Calif., USA). GAPDH and ACTB served as internal controls. The primers used were (5′-3′): GAPDH-F: AGCCACATCGCTCAGACAC (SEQ ID NO:9), GAPDH-R: GCCCAATACGACCAAATCC (SEQ ID NO:10), ACTB —F: CCAACCGCGAGAAGATGA (SEQ ID NO: 11), ACTB -R: […] (SEQ ID NO: 12), SLC19A1-F: […] (SEQ ID NO:13), SLC19A1-R: […] (SEQ ID NO: 14).
HeLa cells (1×104) were treated for 24 hours in 96 well plates with the compounds solubilized in DMSO. Compounds were added at 10 μM each and RNA expression measured by the Cells-to Ct method described above (Thermofisher). CURE-PRO-mediated suppression of the downstream target gene of c-MYC, SLC19A1, after BRD4 degradation was evident in cells treated with the combination of BRD-N25 and 8310 or 8312 (FIG. 66) and BRD-N39 and 8310 and 8312 (FIG. 67) as indicated by a rightward shift in the curve and in increase in the Ct values.

BRD4 = BRD4 (Homo sapiens, UniProt O60885); assay: CURE-PRO-mediated BRD4 degradation, Western blot, HeLa cells; type: cell-based; set-up: endogenous in cells; host or cells: HeLa; conditions: 24 h, Western blot
Outline: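 HeLa cells treated 24 h with compounds in DMSO (1-10 μM, 10 μM or 100 μM each; paired monomers combined 1:1), optional 15-min pretreatment with pomalidomide, VHL298, Nutlin3a (10 μM) or MG-132/carfilzomib (1 μM). RIPA lysates, 10-20 μg protein immunoblotted for BRD4 with β-actin, ECL detection.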

CCNC(=O)C[C@@H]1N=C(c2ccc(Cl)cc2)c2cc(OCCNC(=O)c3cccc(O)c3O)ccc2-n2c(C)nnc21 [BRD-N25]
Suppression of SLC19A1 expression, combination with 8310 (SLC19A1): evident
Suppression of SLC19A1 expression, combination with 8312 (SLC19A1): evident; also recorded: suppressed more substantially

CCNC(=O)C[C@@H]1N=C(c2ccc(Cl)cc2)c2cc(OCCCCC(=O)Nc3cccc(B(O)O)c3)ccc2-n2c(C)nnc21 [BRD-E20, (3-(5-(((4S)-6-(4-chlorophenyl)-4-(2-(ethylamino)-2-oxoethyl)-1-methyl-4H-benzo[f][1,2,4]triazolo[4,3-a][1,4]diazepin-8-yl)oxy)pentanamido)phenyl)boronic acid]
BRD4 degradation, co-treatment with CRBN ligand 8046 (BRD4; 1:1 with 8046, 10 μM each): causes degradation of BRD4; also recorded: Degradation is noted
BRD4 degradation, co-treatment with CRBN ligand 8066 (BRD4; 1:1 with 8066, 10 μM each (BRD-E10: 10 and 100 μM)): causes degradation of BRD4; also recorded: Degradation is noted

CCNC(=O)C[C@@H]1N=C(c2ccc(Cl)cc2)c2cc(OCCOCCNC(=O)c3cccc(O)c3O)ccc2-n2c(C)nnc21 [BRD-N39, N-(2-(2-(((4S)-6-(4-chlorophenyl)-4-(2-(ethylamino)-2-oxoethyl)-1-methyl-4H-benzo[f][1,2,4]triazolo[4,3-a][1,4]diazepin-8-yl)oxy)ethoxy)ethyl)-2,3-dihydroxybenzamide]
Suppression of SLC19A1 expression, combination with 8310 (SLC19A1): evident; also recorded: suppression to levels comparable to that of JQ1 treatment
Suppression of SLC19A1 expression, combination with 8312 (SLC19A1): Complete suppression of SLC19A1 was evident; also recorded: completely suppressed
BRD4 degradation, co-treatment with CRBN ligand 8048 (BRD4; 1:1 with 8048, 1-10 μM each): causes degradation of BRD4; also recorded: Degradation is noted
BRD4 degradation, co-treatment with CRBN ligand 8049 (BRD4; 1:1 with 8049, 1-10 μM each): no evidence of BRD4 degradation
BRD4 degradation, BRD ligand alone (BRD4; BRD monomer alone): no degradation of BRD4
